Results: ChEMBL document CHEMBL3352746, “Synthesis and anticancer activity of quinopimaric and maleopimaric acids’ derivatives” (Bioorg Med Chem, 2014)
Active and inactive are the calls of the source. No cut-off for these calls is given here.

Tests used:
Assay type in all cases: functional
[1] = (§1) Cytotoxicity against human NCI60 cells assessed as cell growth at 10 uM; conditions: read-out: Activity
SR = assay: Cytotoxicity against human SR cells assessed as cell growth at 10 uM; conditions: read-out: Activity
NCI60 = assay: as §1
[2] = Cytotoxicity against human HL60 cells assessed as cell growth at 10 uM; conditions: HL-60, read-out: Activity
TK-10 = assay: Cytotoxicity against human TK10 cells assessed as cell growth at 10 uM; conditions: read-out: Activity
RPMI-8226 = assay: Cytotoxicity against human RPMI8226 cells assessed as cell growth at 10 uM; conditions: read-out: Activity
HCC 2998 = assay: Cytotoxicity against human HCC2998 cells assessed as cell growth at 10 uM; conditions: read-out: Activity
T47D = assay: Cytotoxicity against human T47D cells assessed as cell growth at 10 uM; conditions: read-out: Activity

SMILES: COC(=O)[C@]1(C)CCC[C@]2(C)[C@H]3C[C@H]4C(C(C)C)=C[C@]3(CC[C@H]21)[C@@H]1c2[nH]c3ccccc3c2-c2c([nH]c3ccccc23)[C@@H]14
- growth at 10 µM [1]: > 32%

SMILES: CC(C)C1=C[C@]23CC[C@@H]4[C@](C)(CCC[C@@]4(C)C(=O)O)[C@H]2C[C@H]1[C@H]1C(=O)OC(=O)[C@H]13
- growth at 10 µM [1]: > 32%

SMILES: COC(=O)[C@]1(C)CCC[C@]2(C)[C@H]3C[C@@H]4[C@H]5[C@@H]6CCC(=O)[C@H]5[C@@]3(CC[C@H]21)CC4(C(C)C)O6
- growth at 10 µM [1]: > 32%

SMILES: COC(=O)[C@]1(C)CCC[C@]2(C)[C@H]3C[C@H]4C(C(C)C)=C[C@]3(CC[C@H]21)[C@@H]1NC(=O)CCC2(OCCO2)[C@@H]14
- growth at 10 µM [1]: > 32%

SMILES: COC(=O)[C@]1(C)CCC[C@@]2(C)[C@H]1CC[C@]13C=C(C(C)C)[C@H](C[C@H]21)C1=C3C(=O)C=CC1=O
- growth at 10 µM (SR): 15.6%
- Activity (NCI60): Active

SMILES: COC(=O)[C@]1(C)CCC[C@]2(C)[C@H]3C[C@H]4C(C(C)C)=C[C@]3(CC[C@H]21)[C@@H]1/C(=N/O)CC[C@H](O)[C@@H]14
- growth at 10 µM [1]: > 32%

SMILES: COC(=O)[C@]1(C)CCC[C@]2(C)[C@H]3C[C@H]4C(C(C)C)=C[C@]3(CC[C@H]21)[C@@H]1C(=O)CCC2(OCCO2)[C@@H]14
- growth at 10 µM [2]: 28.7%
- growth at 10 µM (SR): 31.2%
- Activity (NCI60): Active

SMILES: COC(=O)[C@]1(C)CCC[C@]2(C)[C@H]3C[C@H]4C5C[C@]3(CC[C@H]21)[C@@H]1C(=O)CC[C@H](OC5(C)C)[C@@H]14
- growth at 10 µM [1]: > 32%

SMILES: CC(C)C1=C[C@@]23CC[C@@H]4[C@](C)(CCC[C@@]4(C)C(=O)O)[C@H]2C[C@@H]1[C@H]1C(=O)CCC(=O)[C@H]13
- growth at 10 µM (TK-10): 28.4%
- Activity (NCI60): Active

SMILES: COC(=O)[C@]1(C)CCC[C@]2(C)[C@H]3C[C@H]4C(C(C)C)=C[C@]3(CC[C@H]21)[C@@H]1NC(=O)CC[C@H](O)[C@@H]14
- growth at 10 µM [1]: > 32%

SMILES: COC(=O)[C@]1(C)CCC[C@]2(C)[C@H]3C[C@@H]4[C@H]5[C@@H]6Cc7[nH]c(=S)[nH]c7[C@H]5[C@@]3(CC[C@H]21)CC4(C(C)C)O6
- growth at 10 µM [1]: > 32%

SMILES: COC(=O)[C@]1(C)CCC[C@]2(C)[C@H]3C[C@H]4C(C(C)C)=C[C@]3(CC[C@H]21)[C@@H]1/C(=N/O)CCC2(OCCO2)[C@@H]14
- growth at 10 µM (RPMI-8226): 3.94%
- growth at 10 µM (HCC 2998): -9.91%
- growth at 10 µM (T47D): 30.7%
- Activity (NCI60): Active

SMILES: COC(=O)[C@]1(C)CCC[C@]2(C)[C@H]3C[C@@H]4[C@H]5[C@@H]6Cc7c([nH]c8ccccc78)[C@H]5[C@@]3(CC[C@H]21)CC4(C(C)C)O6
- growth at 10 µM [1]: > 32%

SMILES: COC(=O)C(CCSC)NC(=O)[C@]1(C)CCC[C@]2(C)[C@H]3C[C@H]4C(C(C)C)=C[C@]3(CC[C@H]21)[C@@H]1C(=O)CC[C@H](OC(=O)CCC(=O)O)[C@@H]14 (stereo not given in full)
- growth at 10 µM [1]: > 32%

SMILES: COC(=O)[C@]1(C)CCC[C@]2(C)[C@H]3C[C@@H]4[C@H]5[C@@H]6Cc7cn[nH]c7[C@H]5[C@@]3(CC[C@H]21)CC4(C(C)C)O6
- growth at 10 µM [1]: > 32%

SMILES: COC(=O)CCNC(=O)[C@]1(C)CCC[C@]2(C)[C@H]3C[C@H]4C(C(C)C)=C[C@]3(CC[C@H]21)[C@@H]1C(=O)CC[C@H](O)[C@@H]14
- growth at 10 µM [1]: > 32%

SMILES: COC(=O)[C@]1(C)CCC[C@]2(C)[C@H]3C[C@H]4C5C[C@]3(CC[C@H]21)[C@@H]1/C(=N/O)CC[C@H](OC5(C)C)[C@@H]14
- growth at 10 µM [1]: > 32%

SMILES: COC(=O)CCNC(=O)[C@]1(C)CCC[C@]2(C)[C@H]3C[C@H]4C(C(C)C)=C[C@]3(CC[C@H]21)[C@@H]1C(=O)CCC(=O)[C@@H]14
- growth at 10 µM [1]: > 32%

SMILES: COC(=O)[C@]1(C)CCC[C@]2(C)[C@H]3C[C@@H]4[C@H]5[C@@H]6CC/C(=N\O)[C@H]5[C@@]3(CC[C@H]21)CC4(C(C)C)O6
- growth at 10 µM [1]: > 32%

SMILES: COC(=O)[C@]1(C)CCC[C@]2(C)[C@H]3C[C@H]4C(C(C)C)=C[C@]3(CC[C@H]21)[C@@H]1C(=O)[C@H]2O[C@H]2C(=O)[C@@H]14
- growth at 10 µM (SR): 8.07%
- Activity (NCI60): Active

SMILES: COC(=O)[C@]1(C)CCC[C@]2(C)[C@H]3C[C@@H]4[C@H]5[C@@H]6Cc7cnn(-c8ccccc8)c7[C@H]5[C@@]3(CC[C@H]21)CC4(C(C)C)O6
- growth at 10 µM [1]: > 32%

SMILES: COC(=O)[C@]1(C)CCC[C@]2(C)[C@H]3C[C@H]4C(C(C)C)=C[C@]3(CC[C@H]21)[C@@H]1c2[nH]c3ccccc3c2CC(=O)[C@@H]14
- growth at 10 µM [1]: > 32%
